# Test system: p-IKKa levels in L363 (NIK translocated multiple myeloma) cells
# Test: Assay 2: Effect of compounds on p-IKKa levels in L363 (NIK translocated multiple myeloma) cells
# Format: cell-based
# Conditions: Homo sapiens, L-363, 6 h, read-out: Assay 2 IC50 (nM), p-IKKa (Ser 176/180) in BAFF stimulated L363 cells with MG132, 6 h; average if tested more than once
# Experimental: Assay 2: Effect of Compounds on p-IKKa Levels in L363 (NIK Translocated Multiple Myeloma) Cells
# All compounds tested were dissolved and serially diluted in DMSO, 1:3 dilution for 11 points in an Echo compatible plate. 100% DMSO was added to columns 12 and 24 of the plate to serve as high and low signal controls. This compound plate was used to spot 20 nL of compound or DMSO into a Greiner 384 well TC plate (781080). The final DMSO concentration was 0.3% (v/v) in cell assays. Human L363 cells (ATCC) were cultured in RPM11640 medium supplemented with GlutaMax, non-essential amino acids, sodium pyruvate and 10% fetal bovine serum. Cells were routinely maintained at densities of 0.2×10^6 cells per ml—2×10^6 cells per mL at 37° C. in a humidified 5% CO2 atmosphere incubator. Cells were passaged twice a week splitting back to obtain the low density. The day before the assay, cells were washed twice in HBSS (Hank's Balanced Salt Solution), resuspended in Dulbecco's Modified Eagle Medium (DMEM)+0.5% IgG and protease free BSA (Jackson Immuno Research Laboratories), +/−250 ng/ml recombinant human B-cell activating factor (BAFF/BLyS/TNFSF13B) and incubated overnight at 37° C. in a humidified 5% CO2 atmosphere (bulk stimulation with or without BAFF). The next day, the cell concentration was adjusted to 1×10^7 cells/ml in DMEM+/−250 ng/ml BAFF +/−10 μM MG132 and plated at 10 μl/well into compound or DMSO spotted 384 well TC plates. Seeded cells were incubated at 37° C. in a humidified 5% CO2 atmosphere for 6 h. After 6 h, the plates were removed from the incubator and cell lysis was achieved by the addition of 2.5 μl 5×lysis buffer containing protease and phosphatase inhibitors, followed by shaking on a plate shaker at room temperature for 15 min. At the end of this incubation, lysed cells were sequentially treated and incubated with acceptor and donor bead mixes according to the manufacturer's protocol for a 1 plate/2-incubation suspension cell assay (AlphaLISA SureFire Ultra p-IKKa (Ser 176/180) Assay Kit (Perkin Elmer). Plates were read using an EnVision Multilabel Plate Reader (Perkin Elmer). Within an experiment, a concentration response curve for each compound was run in duplicate. The signal obtained in the test wells was normalized using high signal (BAFF stimulated cells, DMSO, MG132) and low signal (unstimulated cells, DMSO) controls. To determine the IC50, a sigmoidal curve was fitted to the plot of % inhibition versus Log10 compound concentration.
row,SMILES,IC50 [nM]
1,"CN1CC[C@@](O)(c2cc(-c3cccc(-c4ccnc(NC5COCC(F)(F)C5)n4)n3)no2)C1=O (mixture of isomers) [Example 459, (3R)-3-(3-(6-(2-((5,5-Difluorotetrahydro-2H-pyran-3-yl)amino)pyrimidin-4-yl)pyridin-2-yl)isoxazol-5-yl)-3-hydroxy-1-methylpyrrolidin-2-one]",50 to 500
2,"CN1CC(F)(F)[C@@](O)(c2cc(-c3cccc(-c4ccnc(Nc5cnn(C)c5)n4)n3)no2)C1=O [Example 3, (R)-4,4-Difluoro-3-hydroxy-1-methyl-3-(3-(6-(2-((1-methyl-1H-pyrazol-4-yl)amino)pyrimidin-4-yl)pyridin-2-yl)isoxazol-5-yl)pyrrolidin-2-one]",< 50
3,"CN1CC[C@@](O)(c2cc(-c3cccc(-c4ccnc(NCCC(F)(F)F)n4)c3)no2)C1=O [Example 71, (R)-3-Hydroxy-1-methyl-3-(3-(3-(2-((3,3,3-trifluoropropyl)amino)pyrimidin-4-yl)phenyl)isoxazol-5-yl)pyrrolidin-2-one]",> 500
4,"CCOc1nn(C)cc1Nc1nccc(-c2cccc(-c3cc([C@]4(O)CCN(C)C4=O)on3)n2)n1 [Example 55, (R)-3-(3-(6-(2-((3-Ethoxy-1-methyl-1H-pyrazol-4-yl)amino)pyrimidin-4-yl)pyridin-2-yl)isoxazol-5-yl)-3-hydroxy-1-methylpyrrolidin-2-one]",< 50
5,"CN1CC[C@@](O)(c2cc(-c3cccc(-c4ccnc(Nc5cc6n(n5)CCN(CC(F)(F)F)C6)n4)n3)no2)C1=O [Example 431, (R)-3-Hydroxy-1-methyl-3-(3-(6-(2-((5-(2,2,2-trifluoroethyl)-4,5,6,7-tetrahydropyrazolo[1,5-a]pyrazin-2-yl)amino)pyrimidin-4-yl)pyridin-2-yl)isoxazol-5-yl)pyrrolidin-2-one]",50 to 500
6,"COCc1cc(-c2ccnc(Nc3cnn(C)c3)n2)nc(-n2cc([C@]3(O)CCN(C)C3=O)nn2)c1 [Example 138, (R)-3-Hydroxy-3-(1-(4-(methoxymethyl)-6-(2-((1-methyl-1H-pyrazol-4-yl)amino)pyrimidin-4-yl)pyridin-2-yl)-1H-1,2,3-triazol-4-yl)-1-methylpyrrolidin-2-one]",50 to 500
7,"CN1CC[C@H](n2cc(Nc3nccc(-c4cccc(-c5cc([C@]6(O)CCN(C)C6=O)on5)n4)n3)cn2)C1 (single isomer, unassigned) [Example 203, (R)-3-Hydroxy-1-methyl-3-(3-(6-(2-((1-((*S)-1-methylpyrrolidin-3-yl)-1H-pyrazol-4-yl)amino)pyrimidin-4-yl)pyridin-2-yl)isoxazol-5-yl)pyrrolidin-2-one]",50 to 500
8,"CN1CC[C@@](O)(c2cc(-c3cccc(-c4ccnc(Nc5cccnc5)n4)n3)no2)C1=O [Example 247, (R)-3-Hydroxy-1-methyl-3-(3-(6-(2-(pyridin-3-ylamino)pyrimidin-4-yl)pyridin-2-yl)isoxazol-5-yl)pyrrolidin-2-one]",> 500
9,"Cc1cnc(Nc2cnn(C)c2)nc1-c1cccc(-c2cc([C@]3(O)CCN(C)C3=O)on2)n1 [Example 208, (R)-3-Hydroxy-1-methyl-3-(3-(6-(5-methyl-2-((1-methyl-1H-pyrazol-4-yl)amino)pyrimidin-4-yl)pyridin-2-yl)isoxazol-5-yl)pyrrolidin-2-one]",> 500
10,"CN1CC[C@@](O)(c2cc(-c3cccc(-c4ccnc(NC5CCOCC5)n4)n3)no2)C1=O [Example 452, (R)-3-Hydroxy-1-methyl-3-(3-(6-(2-((tetrahydro-2H-pyran-4-yl)amino)pyrimidin-4-yl)pyridin-2-yl)isoxazol-5-yl)pyrrolidin-2-one]",50 to 500
11,"CN1CC[C@@](O)(c2cc(-c3cccc(-c4ccnc(Nc5cnn(C)c5)n4)c3F)no2)C1=O [Example 427, (R)-3-(3-(2-Fluoro-3-(2-((1-methyl-1H-pyrazol-4-yl)amino)pyrimidin-4-yl)phenyl)isoxazol-5-yl)-3-hydroxy-1-methylpyrrolidin-2-one]",> 500
12,"C[C@H](Nc1nccc(-c2cccc(-c3cc([C@]4(O)CCN(C)C4=O)on3)n2)n1)C1CC1 [Example 441, (R)-3-(3-(6-(2-(((S)-1-Cyclopropylethyl)amino)pyrimidin-4-yl)pyridin-2-yl)isoxazol-5-yl)-3-hydroxy-1-methylpyrrolidin-2-one]",> 500
13,"CN1CC[C@@](O)(c2cc(-c3cccc(-c4ccnc(Nc5cnn6cccnc56)n4)n3)no2)C1=O [Example 38, (R)-3-Hydroxy-1-methyl-3-(3-(6-(2-(pyrazolo[1,5-a]pyrimidin-3-ylamino)pyrimidin-4-yl)pyridin-2-yl)isoxazol-5-yl)pyrrolidin-2-one]",< 50
14,"CNC(=O)[C@H](C)Nc1nccc(-c2cccc(-c3cc([C@]4(O)CCN(C)C4=O)on3)n2)n1 [Example 183, (S)-2-((4-(6-(5-((R)-3-Hydroxy-1-methyl-2-oxopyrrolidin-3-yl)isoxazol-3-yl)pyridin-2-yl)pyrimidin-2-yl)amino)-N-methylpropanamide]",50 to 500
15,"CN1CC[C@@](O)(c2cc(-c3cccc(-c4ccnc(NC(c5ccccn5)C5CC5)n4)n3)no2)C1=O (stereo partly drawn) [Example 390, (3R)-3-(3-(6-(2-((Cyclopropyl(pyridin-2-yl)methyl)amino)pyrimidin-4-yl)pyridin-2-yl)isoxazol-5-yl)-3-hydroxy-1-methylpyrrolidin-2-one]",> 500
16,"CN1CC[C@@](O)(c2cc(-c3cccc(-c4ccnc(Nc5cc(OC(F)F)n(C)n5)n4)c3)no2)C1=O [Example 412, (R)-3-(3-(3-(2-((5-(Difluoromethoxy)-1-methyl-1H-pyrazol-3-yl)amino)pyrimidin-4-yl)phenyl)isoxazol-5-yl)-3-hydroxy-1-methylpyrrolidin-2-one]",50 to 500
17,"CCn1ncc(Nc2nccc(-c3cccc(-c4cc([C@]5(O)CCN(C)C5=O)on4)n3)n2)c1C [Example 217, (R)-3-(3-(6-(2-((1-Ethyl-5-methyl-1H-pyrazol-4-yl)amino)pyrimidin-4-yl)pyridin-2-yl)isoazol-5-yl)-3-hydroxy-1-methylpyrrolidin-2-one]",< 50
18,"COc1nn(CCO)cc1Nc1nccc(-c2cccc(-c3cc([C@]4(O)CCN(C)C4=O)on3)n2)n1 [Example 48, (R)-3-Hydroxy-3-(3-(6-(2-((1-(2-hydroxyethyl)-3-methoxy-1H-pyrazol-4-yl)amino)pyrimidin-4-yl)pyridin-2-yl)isoxazol-5-yl)-1-methylpyrrolidin-2-one]",< 50
19,"Cc1c(Nc2nccc(-c3cccc(-c4cc([C@]5(O)CCN(C)C5=O)on4)n3)n2)cnn1C [Example 222, (R)-3-(3-(6-(2-((1,5-Dimethyl-1H-pyrazol-4-yl)amino)pyrimidin-4-yl)pyridin-2-yl)isoxazol-5-yl)-3-hydroxy-1-methylpyrrolidin-2-one]",< 50
20,"CN1CC[C@@](O)(c2cc(-c3cccc(-c4ccnc(Nc5cnn(CC(C)(C)O)c5)n4)n3)no2)C1=O [Example 64, (R)-3-Hydroxy-3-(3-(6-(2-((1-(2-hydroxy-2-methylpropyl)-1H-pyrazol-4-yl)amino)pyrimidin-4-yl)pyridin-2-yl)isoxazol-5-yl)-1-methylpyrrolidin-2-one]",< 50
21,"CN1CC[C@@](O)(c2cnn(-c3cccc(-c4ccnc(Nc5cnn6ccccc56)n4)n3)c2)C1=O [Example 98, (R)-3-Hydroxy-1-methyl-3-(1-(6-(2-(pyrazolo[1,5-a]pyridin-3-ylamino)pyrimidin-4-yl)pyridin-2-yl)-1H-pyrazol-4-yl)pyrrolidin-2-one]",50 to 500
22,"Cc1cc(Nc2nccc(-c3cccc(-n4cc([C@@]5(O)C(=O)N(C)CC5(F)F)nn4)n3)n2)ccn1 [Example 117, (R)-4,4-Difluoro-3-hydroxy-1-methyl-3-(1-(6-(2-((2-methylpyridin-4-yl)amino)pyrimidin-4-yl)pyridin-2-yl)-1H-1,2,3-triazol-4-yl)pyrrolidin-2-one]",< 50
23,"C[C@@H](Nc1nccc(-c2cccc(-c3cc([C@]4(O)CCN(C)C4=O)on3)n2)n1)c1cnnn1C [Example 383, (R)-3-Hydroxy-1-methyl-3-(3-(6-(2-(((R)-1-(1-methyl-1H-1,2,3-triazol-5-yl)ethyl)amino)pyrimidin-4-yl)pyridin-2-yl)isoxazol-5-yl)pyrrolidin-2-one]",50 to 500

# Reference: patent publication US20250282768A1 (Janssen Pharmaceutica NV, priority 2022, published 2025)
